This test addresses T1, human β3 adrenergic receptor (Homo sapiens, UniProt P13945).
T1 construct: Full length β3 AR clones (402 amino acids) containing the last 6 amino acids of hβ3-AR are prepared; expressed in transfected cells; host or cells: CHO (Chinese hamster ovary) cells
In words: cAMP (SPA) response in CHO cells transfected with human β3 adrenergic receptor. The format is cell-based. Also noted: key: fraction of maximal isoproterenol (10^-5 M) response. The settings on record: maximal response relative to maximal response of isoproterenol at 10^-5 M. The procedure: Binding to the receptors was measured in Chinese Hamster ovary (CHO) cells that were transfected with adrenergic receptors.
The corresponding primer sequences are described in Mantzoros, C. […] The four fragments are ligated into a pUC 18 plasmid (Gibco-BRL) and sequenced.
CHO cells were grown in 24-well tissue culture plates in Dulbecco's Modified Eagle Media with 10% fetal bovine serum, MEM non-essential amino acids, Penicillin-Streptompycin and Geneticin. On the day of test procedure, growth medium was replaced with preincubation media (Dulbecco's Modified Eagle, Media) and incubated for 30 minutes at 37° C. […] Test compounds were tested over a concentration range of 10^−9 M to 10^−5 M for β3 cells and 10^−8 to 10^−4 M for β1 and β2 transfected cells. Isoproterenol (10^−5 M) was used as an internal standard for comparison of activity. Cells were incubated at 37° C. on a rocker for 30 min with the β3 cells and 15 min for β1 and β2 cells. Incubation was stopped with the addition of 0.2N HCl and neutralized with 2.5N NaOH. The plates, containing the cells and neutralized media, were stored at −20 degrees celsius until ready to test for cAMP using the SPA test kit (Amersham).
Data Analysis and Results: Data collected from the SPA test procedure were analyzed as percent of the maximal isoproterenol response at 10^−5 M. Activity curves were plotted using the SAS statistical and graphics software.
T1 sequence (P13945 whole entry): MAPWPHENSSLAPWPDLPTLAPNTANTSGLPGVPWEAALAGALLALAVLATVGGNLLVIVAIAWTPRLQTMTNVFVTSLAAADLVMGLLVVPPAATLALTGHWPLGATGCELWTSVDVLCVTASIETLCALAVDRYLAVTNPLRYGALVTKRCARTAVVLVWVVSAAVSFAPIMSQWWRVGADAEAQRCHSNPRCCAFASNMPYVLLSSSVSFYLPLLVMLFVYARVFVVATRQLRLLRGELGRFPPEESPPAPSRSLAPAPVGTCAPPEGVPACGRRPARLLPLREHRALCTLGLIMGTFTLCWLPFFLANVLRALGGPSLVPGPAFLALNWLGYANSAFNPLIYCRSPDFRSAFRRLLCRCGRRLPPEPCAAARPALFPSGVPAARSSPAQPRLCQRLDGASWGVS
As to “5-[4-(4-{[4-(2S)-2-(3-Bromoisoxazol-5-yl)-2-hydroxyethyl]amino}piperidine-1-yl)benzyl]-1,3-thiazolidine-2,4-dione [Example 122]”, the “IA(β3)” value is reported as 0.46. On to `O=C1NC(=O)C(Cc2ccc(N3CCC(NC[C@H](O)COc4cccc5[nH]c(=O)[nH]c45)CC3)c(F)c2)S1` (stereo partly drawn) [Example 67, 5-(3-Fluoro-4-{4-[(2S)-2-hydroxy-3-(2-oxo-2,3-dihydro-1H-benzoimidazol-4-yloxy)-propylamino]-piperidin-1-yl}-benzyl)-thiazolidine-2,4-dione], for which the “IA(β3)” value was 1.06. As for `O=C1NC(=O)C(=Cc2ccc(N3CCC(NC[C@H](O)COc4cccc5[nH]c(=O)[nH]c45)CC3)c(Br)c2)S1` [Example 68, 5-(3-Bromo-4-{4-[(2S)-2-hydroxy-3-(2-oxo-2,3-dihydro-1H-benzoimidazol-4-yloxy)-propylamino]-piperidin-1-yl}-benzylidene)-thiazolidine-2,4-dione], the “IA(β3)” value is listed as 1. As for `O=C1NC(=S)SC1=Cc1ccc(N2CCC(NC[C@H](O)COc3ccc(O)cc3)CC2)cc1` [Example 82, 5-(4-{4-[(2S)-2-Hydroxy-3-(4-hydroxy)-propylamino]-piperidin-1-yl}-benzylidene)-2-thioxo-thiazolidin-4-one], the “IA(β3)” value came to 1.07. The value for `CCOC(=O)c1ccc(N2CCC(NC[C@H](O)c3cccc(Cl)c3)CC2)cc1.Cl` [Example 181, {4-[(2R)-2-(3-Chloro-phenyl)-2-hydroxy-ethylamino]-piperidin-1-yl}-benzoic acid ethyl ester hydrochloride] was 0.56. For `CS(=O)(=O)Nc1cc([C@@H](O)CNC2CCN(c3ccc(C(=O)NCC(=O)O)cc3)CC2)ccc1O` [Example 197, [(4-{4-[((2R)-2-Hydroxy-2-{4-hydroxy-3-[(methylsulfonyl)amino]phenyl}ethyl)amino]-1-piperidinyl}benzoyl)amino]acetic acid] the value was 0.94; for `CC(C)C[C@H](NC(=O)c1ccc(N2CCC(NC[C@H](O)c3ccc(O)c(NS(C)(=O)=O)c3)CC2)cc1)C(=O)O` [Example 199, (2S)-2-(4-{4-[(2R)-2-Hydroxy-2-(4-hydroxy-3-methanesulfonylamino-phenyl)-ethylamino]-piperidin-1-yl}-benzoylamino)-4-methyl-pentanoic acid], 1; for `CC(C)[C@H](NC(=O)c1ccc(N2CCC(NC[C@H](O)c3ccc(O)c(NS(C)(=O)=O)c3)CC2)cc1)C(=O)O` [Example 203, (2S)-2-(4-{4-[(2R)-2-Hydroxy-2-(4-hydroxy-3-methanesulfonylamino-phenyl)-ethylamino]-piperidin-1-yl}-benzoylamino)-3-methyl-butyric acid], 1.1. For `COc1ccc(S(=O)(=O)Nc2ccc(N3CCC(NCC(O)c4ccccc4)CC3)cc2)cc1` (stereo not drawn) [Example 255, N-{4-[4-(2-Hydroxy-2-phenyl-ethylamino)-piperidin-1-yl]-phenyl}-4-methoxy-benzenesulfonamide] the value was 0.72; for `COc1ccc(S(=O)(=O)Nc2ccc(N3CCC(NCC(O)c4cccc(O)c4)CC3)cc2)cc1` (stereo not drawn) [Example 256, N-(4-{4-[2-Hydroxy-2-(3-hydroxy-phenyl)-ethylamino]-piperidin-1-yl}-phenyl)-4-methoxy-benzenesulfonamide], 0.85; for `CC(=O)Nc1ccc(S(=O)(=O)Nc2ccc(N3CCC(NCC(O)c4cccc(O)c4)CC3)cc2)cc1` (stereo not drawn) [Example 257, N-[4-(4-{4-[2-Hydroxy-2-(3-hydroxy-phenyl)-ethylamino]-piperidin-1-yl}-phenylsulfamoyl)-phenyl]-acetamide], 0.88. Consider `CC(=O)Nc1ccc(S(=O)(=O)Nc2ccc(N3CCC(NC[C@H](O)c4ccccc4)CC3)cc2)cc1` [Example 258, N-(4-{4-[4-((2R)-2-Hydroxy-2-phenyl-ethylamino)-piperidin-1-yl]-phenylsulfamoyl}-phenyl)-acetamide], for which the “IA(β3)” value is given as 0.7. As to `CC(=O)Nc1ccc(S(=O)(=O)Nc2ccc(N3CCC(NCC(O)c4ccc(O)cc4)CC3)cc2)cc1` (stereo not drawn) [Example 259, N-(4-{[4-(4-{[2-Hydroxy-2-(4-hydroxyphenyl)ethyl]amino}-1-piperidinyl)-anilino]sulfonyl}phenyl)acetamide], the “IA(β3)” value was 0.97. For `COc1ccc(S(=O)(=O)Nc2ccc(N3CCC(NC[C@H](O)c4cccc(Cl)c4)CC3)cc2)cc1` [Example 260, N-[4-(4-{[(2R)-2-(3-Chlorophenyl)-2-hydroxyethyl]amino}-1-piperidinyl)phenyl]-4-methoxybenzenesulfonamide], the “IA(β3)” value stood at 0.63. The value for `COc1ccc(S(=O)(=O)Nc2ccc(N3CCC(NC[C@H](O)c4ccccc4)CC3)cc2)cc1` [Example 261, N-[4-(4-{[(2R)-2-Hydroxy-2-phenylethyl]amino}-1-piperidinyl)phenyl]-4-methoxybenzenesulfonamide] was 0.73; that for `CC(=O)Nc1ccc(S(=O)(=O)Nc2ccc(N3CCC(NC[C@H](O)c4ccc(O)c(O)c4)CC3)cc2)cc1` [Example 263, N-(4-{[4-(4-{[(2R)-2-(3,4-Dihydroxyphenyl)-2-hydroxyethyl]amino}-1-piperidinyl)anilino]sulfonyl}phenyl)acetamide] was 0.93. As for `CC(=O)Nc1ccc(S(=O)(=O)Nc2ccccc2N2CCC(NCC(O)c3cccc(O)c3)CC2)cc1` (stereo not drawn) [Example 264, N-(4-{[2-(4-{[2-Hydroxy-2-(3-hydroxyphenyl)ethyl]amino}-1-piperidinyl)anilino]-sulfonyl}phenyl)acetamide], the “IA(β3)” value is 0.37. For `CC(=O)Nc1ccc(S(=O)(=O)Nc2ccccc2N2CCC(NC[C@H](O)c3ccc(O)c(O)c3)CC2)cc1` [Example 265, N-(4-{[2-(4-{[(2R)-2-(3,4-Dihydroxyphenyl)-2-hydroxyethyl]amino}-1-piperidinyl)-anilino]sulfonyl}phenyl)acetamide] the value was 0.8; for `COc1ccc(S(=O)(=O)Nc2ccc(N3CCC(NC[C@H](O)c4ccc(O)c(O)c4)CC3)cc2)cc1` [Example 266, N-[4-(4-{[(2R)-2-(3,4-Dihydroxyphenyl)-2-hydroxyethyl]amino}-1-piperidinyl)phenyl]-4-methoxybenzenesulfonamide], 0.86; for `COc1cc(C(O)CNC2CCN(c3ccc(NS(=O)(=O)c4ccc(NC(C)=O)cc4)cc3)CC2)ccc1O` (stereo not drawn) [Example 267, N-(4-{[4-(4-{[2-Hydroxy-2-(4-hydroxy-3-methoxyphenyl)ethyl]amino}-1-piperidinyl)anilino]sulfonyl}phenyl)acetamide], 0.99.

`CC(=O)Nc1ccc(S(=O)(=O)Nc2ccc(N3CCC(NCC(O)c4ccc(O)cc4O)CC3)cc2)cc1` (stereo not drawn) [Example 268, N-(4-{[4-(4-{[2-(2,4-Dihydroxyphenyl)-2-hydroxyethyl]amino}-1-piperidinyl)-anilino]sulfonyl}phenyl)acetamide]: the “IA(β3)” value came to 0.64. Take `CC(=O)Nc1ccc(S(=O)(=O)Nc2ccc(N3CCC(NCC(O)c4ccc(O)c(NS(C)(=O)=O)c4)CC3)cc2)cc1` (stereo not drawn) [Example 270, N-{4-[(4-{4-[(2-Hydroxy-2-{4-hydroxy-3-[(methylsulfonyl)amino]phenyl}ethyl)amino]-1-piperidinyl}anilino)sulfonyl]phenyl}acetamide]: the “IA(β3)” value is given as 1.09. For `CCCCCCNC(=O)Nc1ccc(S(=O)(=O)Nc2ccc(N3CCC(NCC(O)c4ccc(C)nc4)CC3)cc2)cc1` (stereo not drawn) [Example 271, 4-{[(Hexylamino)carbonyl]amino}-N-[4-(4-{[2-hydroxy-2-(6-methyl-3-pyridinyl)ethyl]amino}-1-piperidinyl)phenyl]benzenesulfonamide] the value was 0.84; for `CC(=O)Nc1ccc(S(=O)(=O)Nc2ccc(N3CCC(NC[C@H](O)COc4ccccc4)CC3)cc2)cc1` [Example 272, N-(4-{[4-(4-{[(2S)-2-Hydroxy-3-phenoxypropyl]amino}-1-piperidinyl)anilino]-sulfonyl}phenyl)acetamide], 0.57; for `CC(=O)Nc1ccc(S(=O)(=O)Nc2ccc(N3CCC(NCC(O)c4cc(C(N)=O)c5[nH]ccc5c4)CC3)cc2)cc1` (stereo not drawn) [Example 273, 5-[2-({1-[4-({[4-(Acetylamino)phenyl]sulfonyl}amino)phenyl]-4-piperidinyl}amino)-1-hydroxyethyl]-1H-indole-7-carboxamide], 1.05. For the molecule `CC(=O)Nc1ccc(S(=O)(=O)Nc2ccc(N3CCC(NC[C@H](O)COc4cccc5[nH]c(=O)[nH]c45)CC3)cc2)cc1` [Example 274], the “IA(β3)” value was determined as 1.15. For `CCCCCCNC(=O)Nc1ccc(S(=O)(=O)Nc2ccc(N3CCC(NC[C@H](O)COc4cccc5[nH]c(=O)[nH]c45)CC3)cc2)cc1` [Example 275, 4-{[(Hexylamino)carbonyl]amino}-N-{4-[4-({(2S)-2-hydroxy-3-[(2-oxo-2,3-dihydro-1H-benzimidazol-4-yl)oxy]propyl}amino)-1-piperidinyl]phenyl}benzenesulfonamide], the “IA(β3)” value was 0.73.

The values above are taken from patent publication US7022716B2, “Cyclic amine phenyl beta-3 adrenergic receptor agonists” (Wyeth, priority 2000, dated 2006).
